For orientation: melting point means the temperature of the solid-liquid transition.

Several values for one entry are separate records, joined by “and”; a condition that tells them apart may be missing. Identical values can stand only once. Like-named read-outs stand apart in the source and are kept apart here.

The record followed here is US6344505B1, “Mono- and bis-benzotriazolyldihydroxybiaryl UV absorbers” (Cytec Industries Inc., priority 1999, dated 2002).

A short description of data set [1]: Solubility in xylene (compatibility). The format is physicochemical.
Data set [2] in a line: UV absorption in toluene (λmax, molar absorptivity). Type of data set: physicochemical. From the text:
The high molar absorptivity of 3,3′-bis-(2H-benzotriazol-2-yl)-5,5′-di-tert-octyl-1,1′-biphenyl-2,2′-diol, ε310=25,600 (toluene) and ε353=28,300 (toluene) are indicative of high ultraviolet absorption efficiency of the benzotriazole stabilizers of the present invention.
The bis-benzotriazoles of the invention absorb UV light at longer wavelengths than their non-dimeric or alkylene bridged dimeric counterparts. For example, the dimeric 3,3′-bis-(2H-benzotriazol-2-yl)-5,5′-di-tert-octyl-1,1′-biphenyl-2,2′-diol of the present invention absorbs at λmax(toluene)=353 nm. In contrast, the monomeric 2-(2H-benzotriazol-2-yl)-4-tert-octyl-phenol absorbs at a much lower wavelength, at λmax(toluene)=346 nm. Furthermore, the methylene bridged 2,2′-methylenedi{6-(2-benzotriazolyl)-4-tert-octyl-phenol} has an absorption at λmax(toluene)=350 nm, also substantially shorter than that of the bis-benzotriazoles of the present invention.
PRODUCT A: 3,3′-bis-(2H-benzotriazol-2-yl)-5,5′-di-tert-octyl-1,1′-biphenyl-2,2′-diol (COMPOUND 1) (0.033 g), characterized by ^1H nuclear magnetic resonance spectroscopy (NMR), ultraviolet and mass spectroscopy; λmax(toluene): 310 and 353 nm; ε310=25,600; ε353=28,300; high resolution electron impact mass spectroscopy (HREI/MS): m/e=Found: 644.3815; Calculated: 644.3839; and
PRODUCT B: 3-(2H-Benzotriazol-2-yl)-5,5′-di-tert-octyl-1,1′-biphenyl-2,2′-diol (0.144 g), characterized by ^1H nuclear magnetic resonance spectroscopy (NMR), ultraviolet spectroscopy, and mass spectroscopy; λmax(toluene): 332 nm; ε332=15,400; high resolution electron impact mass spectroscopy (HREI/MS): m/e=Found: 527.3498; Calculated: 527.3512.

A short description of data set [3]: Thermal Gravimetric Analysis (TGA), temperature of 10 wt % loss (volatility). The format is physicochemical. As to conditions: for TGA T-10%: Temperature at which 10% wt. loss is observed during TGA analysis; for TGAT=10% point: temperature at which 10 wt % loss occurs, TGA experiment. From the text:
A reliable indication of the volatility of benzotriazole stabilizers is the temperatures at which 10 wt % loss occurs (TGAT=10%).

A short description of data set [4]: Florida weathering (5° south, direct, ASTM G7-89) of acrylic melamine coating. The note with it: Table 11. How it is done: COMPOUND 1 was formulated in a clear acrylic melamine coatings which were applied to aluminum panels for accelerated weathering testing as follows. COMPOUND 1 (2% based on total resin solids) was pre-dissolved in xylenes, alone and in combination with Sanduvor® 3058 HALS (0.5% or 1.0% based on total resin solids), and added to the clear acrylic melamine formulation given in Table 6. A formulation containing Tinuvin® 328 (2% based on total resin solids) was also prepared for comparison purposes. Unpolished aluminum panels, measuring 4″×12″, obtained from ACT Laboratories, Inc. (Hillsdale, Mich.) were coated with the clear coat formulation of Table 6. The draw-down technique, using WC-52 Wire-Cators™ (Leneta co., Ho-Ho-Kus, N.J.), was used to apply the clear coats to the panels. Coatings 2 mil thick were obtained. The clear coats were allowed to flash for 10 min. at ambient temperature and cured for 30 min. at 135° C.
The coatings of Example 13 were weathered in Miami, Fla. The testing was performed in accordance with ASTM G7-89 at a tilt angle of […] from the horizontal facing south with specimens mounted unbacked.

In turn, `CC(C)(C)CC(C)(C)c1cc(-c2cc(C(C)(C)CC(C)(C)C)cc(-n3nc4ccccc4n3)c2O)c(O)c(-n2nc3ccccc3n2)c1` [COMPOUND 1, 3,3′-bis-(2H-benzotriazol-2-yl)-5,5′-di-tert-octyl-1,1′-biphenyl-2,2′-diol] registered a melting point of 209 to 211 °C. Also, the solubility in xylene in data set [1] is reported as 6.0 gram/100 ml. Moreover, the “λmax(toluene)” value in data set [2] is 310 nm and 353 nm. The “molar absorptivity ε310” value in data set [2] (310 nm, in M-1 cm-1 (unit assumed)) is 25,600. In data set [2] (353 nm, in M-1 cm-1 (unit assumed)), the “molar absorptivity ε353” value is recorded as 28,300. In addition, in data set [2] (listed as 3,3′-bis-(2H-benzotriazol-2-yl)-5,5′-di-tert-octyl-1,1′-biphenyl-2,2′-diol), the “λmax(toluene)” value was found to be 353 nm. In data set [3], the “TGA T-10%” value was 381 °C and the “TGAT=10% point” value came out at 384 °C. Besides, in data set [4], the “efficiency in reducing total color change (delta E) relative to the unstabilized coating” value is “comparable efficiency”.
Consider `CC(C)(C)c1cc(-c2cc(C(C)(C)C)cc(-n3nc4ccccc4n3)c2O)c(O)c(-n2nc3ccccc3n2)c1` [COMPOUND 2, 3,3′-bis-(2H-benzotriazol-2-yl)-5,5′-di-tert-butyl-1,1′-biphenyl-2,2′-diol], for which the melting point is 234 °C.
As to `CC(C)(c1ccccc1)c1cc(-c2cc(C(C)(C)c3ccccc3)cc(-n3nc4ccccc4n3)c2O)c(O)c(-n2nc3ccccc3n2)c1` [COMPOUND 3, 3,3′-bis-(2H-benzotriazol-2-yl)-5,5′-di-cumyl-1,1′-biphenyl-2,2′-diol], in data set [3], the “TGA T-10%” value turned out to be 377 °C.
As for `Oc1c(-c2cccc(-n3nc4ccccc4n3)c2O)cccc1-n1nc2ccccc2n1` [COMPOUND 5, 3,3′-bis-(2H-benzotriazol-2-yl)-1,1′-biphenyl-2,2′-diol], the “TGA T-10%” value in data set [3] worked out at 383 °C.
On to `CC(C)(C)CC(C)(C)c1cc(Cc2cc(C(C)(C)CC(C)(C)C)cc(-n3nc4ccccc4n3)c2O)c(O)c(-n2nc3ccccc3n2)c1` [LA-31 ®, 2,2′-Methylenedi [Bis-2-benzotriazolyl)-4-tert-octylphenol], for which the “TGA T-10%” value in data set [3] was determined as 380 °C.
The compound `CC(C)(C)CC(C)(C)c1cc(Cc2cc(C(C)(C)CC(C)(C)C)cc(-n3nc4ccccc4n3)c2O)c(O)c(-n2nc3ccccc3n2)c1` [MIXXIM BB/100®, 2,2′-methylenedi{6-(2-benzotriazolyl)-4-tert-octyl-phenol}, reference compound] displayed a solubility in xylene in data set [1] of 2.5 gram/100 ml. The “λmax(toluene)” value in data set [2] turned out to be 350 nm. The “TGAT=10% point” value in data set [3] stood at 370 °C.
Consider `CC(C)(C)CC(C)(C)c1ccc(O)c(-c2cc(C(C)(C)CC(C)(C)C)cc(-n3nc4ccccc4n3)c2O)c1` [PRODUCT B, 3-(2H-Benzotriazol-2-yl)-5,5′-di-tert-octyl-1,1′-biphenyl-2,2′-diol], for which, in data set [2], the “λmax(toluene)” value was 332 nm. In addition, the “molar absorptivity ε332” value in data set [2] (332 nm) is reported as 15,400.
With `Cc1ccc(O)c(-n2nc3ccccc3n2)c1` [Tinuvin P ™, 2-(2H-benzotriazol-2-yl)-4-methyl-phenol], the “TGA T-10%” value in data set [3] came to 205 °C.
On to `CCC(C)(C)c1cc(-n2nc3ccccc3n2)c(O)c(C(C)(C)CC)c1` [Tinuvin ® 328, reference compound], for which, in data set [4], the “efficiency in reducing total color change (delta E) relative to the unstabilized coating” value was “comparable efficiency”.
Regarding `CC(C)(c1ccccc1)c1cc(-n2nc3ccccc3n2)c(O)c(C(C)(C)c2ccccc2)c1` [Tinuvin ®-234, 2-(2H-Benzotriazol-2yl)-4,6-bis (α,α-dimethylbenzyl) phenol], in data set [3], the “TGA T-10%” value turned out to be 312 °C.
Regarding `CC(C)(C)CC(C)(C)c1ccc(O)c(-n2nc3ccccc3n2)c1` [UV-5411, 2-(2H-benzotriazol-2-yl)-4-tert-octyl-phenol], the “λmax(toluene)” value in data set [2] is recorded as 346 nm. Besides, in data set [3], the “TGA T-10%” value is 245 °C and the “TGAT=10% point” value amounted to 247 °C.
